From US8563550B2, “Imidazolothiadiazoles for use as protein kinase inhibitors” (Centro Nacional de Investigaciones Oncologicas (CNIO), priority 2007, dated 2013)

Target: T1, PIM-1 (Homo sapiens, UniProt P11309)
T1 construct: histidine tag (C); made in house
Assay: PIM-1 biochemical assay (ADP Hunter assay kit)
Details: compound concentration 10 μM; approximate values
Text: The biochemical assay to measure PIM-1 activity relies on the ADP Hunter assay kit (DiscoveRx Corp., Cat. #90-0077), that determines the amount of ADP as direct product of the kinase enzyme activity.
The enzyme has been expressed and purified in-house as a recombinant human protein with a C-terminal histidine tag. The protein is active and stable.
Assay conditions were as indicated by the kit manufacturers with the following adaptations for the kinase activity step: • Kinase assay buffer and assay volume stay as recommended (15 mM HEPES, pH 7.4, 20 mM NaCl, 1 mM EGTA, 0.02% Tween 20, 10 mM MgCl2 and 0.1 mg/ml bovine γ-globulins/75 μl assay volume) • Incubation time and temperature: 60 min at 30° C. • PIM-1 concentration: 50 pg/μl • ATP concentration: 100 μM • PIM-1 substrate peptide: PIMtide (ARKRRRHPSGPPTA) • Peptide concentration: 60 μM • Positive control for kinase activity inhibition: 1-10 μM Staurosporine • DMSO concentration have to stay below 2% during the kinase reaction
Assays were performed in either 96 or 384-well plates. The final outcome of the coupled reactions provided by the kit is the release of the fluorescent product Resorufin and has been measured with a multilabel HTS counter VICTOR V (PerkinElmer) using an excitation filter at 544 nm and an emission filter at 580 nm.

T1 sequence (P11309 whole entry): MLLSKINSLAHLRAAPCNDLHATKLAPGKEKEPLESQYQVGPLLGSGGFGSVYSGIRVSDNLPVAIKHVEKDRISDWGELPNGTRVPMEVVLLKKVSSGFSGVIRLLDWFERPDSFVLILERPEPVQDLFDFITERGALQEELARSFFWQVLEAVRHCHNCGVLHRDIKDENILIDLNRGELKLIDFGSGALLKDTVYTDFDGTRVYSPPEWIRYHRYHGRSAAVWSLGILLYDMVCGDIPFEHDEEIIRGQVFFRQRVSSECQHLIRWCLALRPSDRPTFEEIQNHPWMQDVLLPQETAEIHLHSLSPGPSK

Row | Molecule | Percentage Inhibition of PIM-1 at 10 μM
1 | FC(F)(F)Oc1cccc(-c2cnc3sc(NCC4CC4)nn23)c1 [34(39), Cyclopropylmethyl-[5-(3-trifluoromethoxy-phenyl)-imidazo[2,1-b][1,3,4]thia-diazol-2-yl]-amine] | 82%
2 | 4-{2-[(Furan-2-ylmethyl)-amino]-imidazo[2,1-b][1,3,4]thiadiazol-5-yl}-phenol [34(40)] | 100%

Same assay, conditions: compound concentration 10 μM; approximate values; read-out: Percentage Inhibition of PIM-1 at 10 μM

Row | Molecule | inhibition at 10 µM
3 | CN(C)c1cccc(-c2cnc3sc(Oc4ccc(F)cc4)nn23)c1 [Example 15, {3-[2-(4-Fluoro-phenoxy)-imidazo[2,1-b][1,3,4]thiadiazol-5-yl]-phenyl}-dimethyl-amine] | 89%
4 | CN(C)c1cccc(-c2cnc3sc(NCC4CCOCC4)nn23)c1 [34(16), [5-(3-Dimethylamino-phenyl)-imidazo[2,1-b][1,3,4]thiadiazol-2-yl]-(tetrahydro-pyran-4-ylmethyl)-amine] | 99%
5 | c1ccc2cc(-c3cnc4sc(NCC5CC5)nn34)ccc2c1 [34(10), Cyclopropylmethyl-(5-naphthalen-2-yl-imidazo[2,1-b][1,3,4]thiadiazol-2-yl)-amine] | 77%
6 | CC(C)CNc1nn2c(-c3cccc(N(C)C)c3)cnc2s1 [34(3), [5-(3-Dimethylamino-phenyl)-imidazo[2,1-b][1,3,4]thiadiazol-2-yl]-isobutyl-amine] | 97%
7 | c1ccc(OCCNc2nn3c(-c4ccc5ccccc5c4)cnc3s2)cc1 [34(4), (5-Naphthalen-2-yl-imidazo[2,1-b][1,3,4]thiadiazol-2-yl)-(2-phenoxy-ethyl)-amine] | 71%
8 | CC(=O)c1cccc(-c2cnc3sc(NCCN4CCOCC4)nn23)c1 [34(65), 1-{3-[2-(2-Morpholin-4-yl-ethylamino)-imidazo[2,1-b][1,3,4]thiadiazol-5-yl]-phenyl}-ethanone] | 77%
9 | Cc1cc(-c2cnc3sc(NCC4CC4)nn23)cc(C)c1O [34(58), 4-[2-(Cyclopropylmethyl-amino)-imidazo[2,1-b][1,3,4]thiadiazol-5-yl]-2,6-dimethylphenol] | 97%
10 | COCCNc1nn2c(-c3ccc(F)c(Cl)c3)cnc2s1 [34(14), [5-(3-Chloro-4-fluoro-phenyl)-imidazo[2,1-b][1,3,4]thiadiazol-2-yl]-(2-meth-oxyethyl)-amine] | 96%
11 | COCCNc1nn2c(-c3ccc4ccccc4c3)cnc2s1 [34(8), (2-Methoxy-ethyl)-(5-naphthalen-2-yl-imidazo[2,1-b][1,3,4]thiadiazol-2-yl)-amine] | 98%

Continued, values first:

Row | inhibition at 10 µM | Molecule
12 | 73% | Fc1ccc(CNc2nn3c(-c4cccnc4)cnc3s2)cc1 [34(57), (4-Fluoro-benzyl)-(5-pyridin-3-yl-imidazo[2,1-b][1,3,4]thiadiazol-2-yl)-amine]
13 | 83% | Fc1ccc(-c2cnc3sc(-c4ccccc4)nn23)cc1 [Example 4, 5-(4-Fluorophenyl)-2-phenyl-imidazo[2,1-b][1,3,4]thiadiazole]
14 | 82% | Oc1ccc(-c2cnc3sc(Nc4ccc(F)cc4)nn23)cc1 [Example 18, 4-[2-(4-Fluoro-phenylamino)-imidazo[2,1-b][1,3,4]thiadiazol-5-yl]-phenol]
15 | 82% | CC(=O)c1cccc(-c2cnc3sc(NCc4cccs4)nn23)c1 [34(22), 1-(3-{2-[(Thiophen-2-ylmethyl)-amino]-imidazo[2,1-b][1,3,4]thiadiazol-5-yl}-phenyl)-ethanone]
16 | 98% | Clc1cccc(-c2cnc3sc(NCCc4ccccn4)nn23)c1 [34(5), [5-(3-Chloro-phenyl)-imidazo[2,1-b][1,3,4]thiadiazol-2-yl]-(2-pyridin-2-yl-ethyl)-amine]
17 | 84% | COc1ccc(CNc2nn3c(-c4ccc(F)c(Cl)c4)cnc3s2)cc1 [34(33), [5-(3-Chloro-4-fluoro-phenyl)-imidazo[2,1-b][1,3,4]thiadiazol-2-yl]-(4-meth-oxybenzyl)-amine]
18 | 58% | COc1ccc(CNc2nn3c(-c4ccc5ccccc5c4)cnc3s2)cc1 [34(12), (4-Methoxy-benzyl)-(5-naphthalen-2-yl-imidazo[2,1-b][1,3,4]thiadiazol-2-yl)-amine]
